Experimental findings from US20210171579A1, “INHIBITOR USING PLANT CYCLOPEPTIDE AS EFFECTIVE COMPONENT FOR LIPID METABOLIC ABNORMALITIES IN CANCER CELLS AND USES THEREOF” (CHINA PHARMACEUTICAL UNIVERSITY, priority 2017, published 2021) are described below.

Molecules are shown by their SMILES.

The subject of data set [1] is human liver cancer HepG2 cell line. Put plainly: Indexes related to lipid metabolism in human liver cancer cells (commercial kits). Format: cell-based. Particulars: HepG2, 24 h treatment, FIG. 2. The procedure:
(§1) In-vivo antineoplastic activity and activity of inhibiting abnormal lipid metabolism of tumors of the RAs are verified by establishing a nude mouse subcutaneously transplanted tumor model with liver cancer cells.
An overnight human liver cancer HepG2 cell line is cultivated by a 10% FBS medium. Pancreatin is added for digestion to form a cell suspension, which is inoculated onto a 6-well plate according to an appropriate concentration. After 24 h, the RA-V or the RA-XII is added for treatment for 24 h. Digestion is conducted with the pancreatin. Centrifugation is conducted for 5 to 10 min at a room temperature and 2000 rpm, and cells are collected. The cells are resuspended once with pre-cooled 1×PBS (4° C.), centrifuged for 5 to 10 min at 2000 rpm, and washed. By adopting commercial kits, contents of total cholesterol and triglycerides in the cells are detected through a single reagent GPO-PAP method respectively, and contents of low-density lipoproteins and high-density lipoproteins in the cells are detected through a double-reagent direct method (the commercial kits are purchased from the Nanjing Jiancheng Bioengineering Institute, with article numbers of A111-1, A110-1, A113-1 and A112-1 respectively).

Data set [2] shares this test system. The data set is described as follows: Growth inhibition of human liver cancer cells, SRB method. The data set is classed as cell-based. To be noted: HepG2, 24 h treatment, FIG. 1. The procedure:
as §1
Cell viability is determined by adopting an SRB method. An overnight human liver cancer HepG2 cell line (purchased from the Cell Bank of Committee on Type Culture Collection of Chinese Academy of Sciences) is cultivated by a 10% FBS medium. Pancreatin is added for digestion to form a cell suspension, which is inoculated onto a 96-well plate according to an appropriate concentration at 100 μl/well. Cultivation is conducted in a CO2 incubator for 24 h until cells adhere to walls completely. Different final concentrations of RA-XII are added, after acting for 24 h, 50 μl of a 4° C. pre-cooled TCA solution (30%, w/v) is added into each well for fixing of the cells, and a final concentration of the TCA solution is 10%. The 96-well plate is transferred into a 4° C. refrigerator for fixing for 1 h after still standing for 5 min. The 96-well plate is taken out, washed 5 times with deionized water, and aired at a room temperature. […] Optical densities are determined at 540 nm by adopting a microplate reader.

For data set [3] the test system is unchanged. Put plainly: Lipid droplet formation in human liver cancer cells, Oil Red staining. The data set is classed as cell-based. To be noted: HepG2, 24 h treatment, FIG. 3. As for the experimental part:
as §1
0.5 g of pre-ground and pre-crushed dried Oil Red powder (purchased from Sigma Company) is weighed, and dissolved in a small amount of isopropanol. Then isopropanol is added to reach 100 ml. A solution is sealed in a brown bottle (or packaged with tin foil paper for avoiding light) for preservation at 4° C. as a storage solution, which may be preserved for a long time. When using, 6 ml of the solution is taken, and 4 ml of tri-distilled water is added to be evenly mixed. The mixed solution is filtered by qualitative filter paper into a working solution, which is used up within a few hours after diluted. An overnight human liver cancer HepG2 cell line is cultivated by a 10% FBS medium. Pancreatin is added for digestion to form a cell suspension, which is inoculated onto a 24-well plate according to an appropriate concentration. After 24 h, the RA-XII is added for treatment for 24 h. A cultivation solution is poured out carefully and slowly. Fixing is then conducted with 4% paraformaldehyde for 30 min. Staining is conducted with an Oil Red working solution for about 30 min at the room temperature. Washing is conducted with PBS twice. Pictures are taken under a microscope.

The test system of data set [4] is HepG2 subcutaneously transplanted tumors. Put plainly: In-vivo antineoplastic test, nude mouse subcutaneously transplanted tumor model. Also noted: species or system BABL/c nude mice. To be noted: caudal vein dosing every other day, 21 days, FIG. 4. As for the experimental part: as §1
(§2) HepG2 is diluted into […] with a serum-free MEM. 100 μL of cell suspension is taken and inoculated to left armpits of BABL/c nude mice subcutaneously, and grows for 7 days to form a tumor-bearing mouse model. Inoculated and well-grown tumor-bearing mice are grouped at random, and dosed with the RA-XII once through caudal veins every other day. While dosing, sizes of tumors are measured with a vernier caliper (a tumor volume=a long diameter×a short diameter^2/2), and weights of the nude mice are recorded and counted. The used animals are killed after dosed for 21 days, and tumors are peeled and photographed.

Data set [5] can be described thus: Weights of nude mice in the in-vivo antineoplastic test. Also on record: species or system BABL/c nude mice. To be noted: caudal vein dosing every other day, 21 days, FIG. 4. As for the experimental part:
as §2

Data set [6] deals with tissues of HepG2 subcutaneously transplanted tumors. The data set is described as follows: Indexes related to lipid metabolism in tissues of subcutaneously transplanted tumors. Format: in vivo, BABL/c nude mice. Particulars: tumor tissues from Embodiment 4, RIPA lysate, FIG. 5. As for the experimental part: as §2
Tissues of the tumors obtained in Embodiment 4 are taken and lysed with an RIPA lysate. Then contents of cholesterol, triglycerides, low-density lipoproteins and high-density lipoproteins are detected by adopting commercial kits (specific methods are the same as Embodiment 2).

The test system is the same in data set [7]. The data set is described as follows: Lipid droplets in tissues of subcutaneously transplanted tumors, Oil Red staining. Format: in vivo, BABL/c nude mice. Particulars: tumor tissues from Embodiment 4, Oil Red staining of cryosections, FIG. 6. The procedure:
as §2
Tissues of the tumors obtained in Embodiment 4 are taken and embedded by OCT and then rapidly cooled. Cryostat serial sectioning is conducted with a thickness being 20 μm. Drying is conducted for 30 min at a room temperature. Fixing is conducted with 4% paraformaldehyde for 30 min. Staining is conducted with an Oil Red working solution for about 30 min at the room temperature. Washing is conducted with PBS twice. Sections are sealed with a glycerin jelly. Overnight drying is conducted, and pictures are taken under a microscope.

Turning to `COc1ccc(C[C@H]2C(=O)N[C@@H](C)C(=O)N(C)C3Cc4ccc(cc4)Oc4cc(ccc4O)C[C@@H](C(=O)N[C@H](C)C(=O)N[C@@H](C)C(=O)N2C)N(C)C3=O)cc1` [RA-V], in data set [1], the “high-density lipoproteins content in cells” value was “no obvious influence”, the “low-density lipoproteins content in cells” value is “obviously inhibit expression”, the “total cholesterol content in cells” value is on record as “obviously inhibit expression” and the “triglycerides content in cells” value is recorded as “obviously inhibit expression”.

Take `COc1ccc(C[C@H]2C(=O)N[C@@H](C)C(=O)N(C)C3Cc4ccc(cc4)Oc4cc(ccc4O[C@@H]4OC(CO)[C@@H](O)[C@H](O)C4O)C[C@@H](C(=O)N[C@H](C)C(=O)N[C@@H](C)C(=O)N2C)N(C)C3=O)cc1` (some centres unmarked) [RA-XII]: the “proliferation of tumor cells (cell viability, SRB)” value in data set [2] was “inhibits rapid proliferation of tumor cells”. For the same compound, in data set [1], the “high-density lipoproteins content in cells” value is reported as “no obvious influence”, the “low-density lipoproteins content in cells” value was “obviously inhibit expression”, the “total cholesterol content in cells” value is listed as “obviously inhibit expression” and the “triglycerides content in cells” value is recorded as “obviously inhibit expression”. Further, the “number of lipid droplets in tumor cells” value in data set [3] was “obviously reduce the number of the lipid droplets”. Further, the “growth speed of subcutaneously transplanted tumors (tumor volume)” value in data set [4] is “obviously reduce a growth speed”. The “weights of the nude mice” value in data set [5] is “no obvious influence”. Moreover, in data set [6], the “high-density lipoproteins in tumor tissues” value was “no obvious influence”, the “low-density lipoproteins in tumor tissues” value is “obviously inhibit expression”, the “total cholesterol in tumor tissues” value is on record as “obviously inhibit expression” and the “triglycerides in tumor tissues” value is “obviously inhibit expression”. For the same compound, the “number of lipid droplets in tumor tissues” value in data set [7] is recorded as “obviously reduce the number of the lipid droplets”.
